This is an account of results in US8822517B2, “Arylosulfonamides for the treatment of CNS diseases” (Adamed SP. Z O.O., priority 2010, dated 2014).

The target of experiment [1] is T1, serotonine transporter (SERT) receptor (Homo sapiens, UniProt P31645).
T1 construct: expressed in transfected cells; host or cells: CHO cells
In words: Binding assay SERT (h), [3H]imipramine, CHO cells. The note with it: read-out: SERT [%]. In a few lines:
(§1)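 Single-concentration test (1×10^−6 M). Total and non-specific binding were counted by scintillation, and their difference defines specific binding.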

The subject of the next experiment is adrenergic α1 receptor. The experiment can be described thus: Binding assay α1 (non-selective), [3H]prazosin, rat cerebral cortex. The note with it: percent inhibition of control specific binding; compounds tested at 1×10^−6 M. The gist of the method: as §1
The target of the next experiment is dopaminergic D3 receptor (Homo sapiens, UniProt P35462). In words: Binding assay D3 (h), [3H]methyl-spiperone, CHO cells. Also on record: expressed in transfected cells; host or cells: CHO cells. As to conditions: read-out: D3 [%]. The gist of the method: as §1
For experiment [2], the target named is serotoninergic 5-HT6 receptor (Homo sapiens, UniProt P50406). In words: Binding assay 5-HT6 (h), [3H]LSD, CHO cells. Also on record: expressed in transfected cells; host or cells: CHO cells. The note with it: read-out: 5-HT6. The gist of the method:
as §1

Experiment [3] addresses serotoninergic 5-HT7 receptor (Homo sapiens, UniProt P34969). The experiment can be described thus: Binding assay 5-HT7 (h), [3H]LSD, CHO cells. The arrangement: expressed in transfected cells; host or cells: CHO cells. As to conditions: read-out: 5-HT7. In a few lines:
as §1

The target in the next experiment is dopaminergic D2 receptor (Homo sapiens, UniProt P14416). In words: Binding assay D2S (h), [3H]methyl-spiperone, HEK-293 cells. The arrangement: expressed in transfected cells; host or cells: HEK-293 cells. The note with it: read-out: D2 [%]. The gist of the method:
as §1

The target of experiment [4] is T2, serotoninergic 5-HT1A receptor (Homo sapiens, UniProt P08908).
T2 sequence (P08908 1-422): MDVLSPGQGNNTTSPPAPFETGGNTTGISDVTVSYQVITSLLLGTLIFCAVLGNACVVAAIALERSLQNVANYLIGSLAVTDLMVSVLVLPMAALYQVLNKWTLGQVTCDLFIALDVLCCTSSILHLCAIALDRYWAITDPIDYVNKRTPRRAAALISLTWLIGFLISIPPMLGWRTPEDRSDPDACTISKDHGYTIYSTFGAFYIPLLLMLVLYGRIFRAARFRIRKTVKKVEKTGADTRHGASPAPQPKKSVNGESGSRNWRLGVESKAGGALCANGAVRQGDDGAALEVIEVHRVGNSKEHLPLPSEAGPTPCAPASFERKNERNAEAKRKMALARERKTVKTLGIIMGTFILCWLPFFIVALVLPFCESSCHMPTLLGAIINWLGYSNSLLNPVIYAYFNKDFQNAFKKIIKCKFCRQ
The experiment can be described thus: Binding assay 5-HT1A (h), [3H]8-OH-DPAT, HEK-293 cells. As to conditions: read-out: 5-HT1A. Also on record: expressed in transfected cells; host or cells: HEK-293 cells. The gist of the method:
as §1

Experiment [5] concerns the target serotoninergic 5-HT2A receptor (Homo sapiens, UniProt P28223). The experiment can be described thus: Binding assay 5-HT2A (h), [3H]ketanserin, HEK-293 cells. The arrangement: expressed in transfected cells; host or cells: HEK-293 cells. As to conditions: read-out: 5-HT2A. In a few lines: as §1

Sequence of serotoninergic 5-HT7 receptor (P34969 whole entry): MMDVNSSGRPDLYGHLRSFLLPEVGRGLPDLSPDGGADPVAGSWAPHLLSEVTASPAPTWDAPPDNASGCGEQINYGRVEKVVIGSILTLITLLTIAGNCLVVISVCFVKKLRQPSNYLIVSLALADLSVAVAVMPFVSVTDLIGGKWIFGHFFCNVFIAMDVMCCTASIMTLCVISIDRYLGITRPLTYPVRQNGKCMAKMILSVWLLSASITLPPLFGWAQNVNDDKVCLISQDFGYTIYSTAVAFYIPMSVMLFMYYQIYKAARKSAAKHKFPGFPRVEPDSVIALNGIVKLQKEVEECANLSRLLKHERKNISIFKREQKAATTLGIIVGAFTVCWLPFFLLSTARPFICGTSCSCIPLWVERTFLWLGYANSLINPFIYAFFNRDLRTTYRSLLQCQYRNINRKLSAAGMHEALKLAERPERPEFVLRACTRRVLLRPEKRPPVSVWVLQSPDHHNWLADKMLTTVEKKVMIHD
Sequence of serotoninergic 5-HT2A receptor (P28223 whole entry): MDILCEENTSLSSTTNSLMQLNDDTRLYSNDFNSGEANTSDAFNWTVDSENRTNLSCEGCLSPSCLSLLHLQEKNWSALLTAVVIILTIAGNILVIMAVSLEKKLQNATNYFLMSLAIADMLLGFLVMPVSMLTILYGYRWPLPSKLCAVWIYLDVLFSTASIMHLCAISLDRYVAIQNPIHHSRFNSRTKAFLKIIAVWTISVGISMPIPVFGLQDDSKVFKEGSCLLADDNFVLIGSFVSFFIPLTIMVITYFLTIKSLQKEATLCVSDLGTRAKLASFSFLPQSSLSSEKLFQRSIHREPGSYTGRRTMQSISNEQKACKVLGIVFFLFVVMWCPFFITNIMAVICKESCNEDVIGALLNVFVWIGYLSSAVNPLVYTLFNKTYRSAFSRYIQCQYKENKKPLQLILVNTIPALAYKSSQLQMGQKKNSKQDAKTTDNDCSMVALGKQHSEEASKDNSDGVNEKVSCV
T1 sequence (P31645 whole entry): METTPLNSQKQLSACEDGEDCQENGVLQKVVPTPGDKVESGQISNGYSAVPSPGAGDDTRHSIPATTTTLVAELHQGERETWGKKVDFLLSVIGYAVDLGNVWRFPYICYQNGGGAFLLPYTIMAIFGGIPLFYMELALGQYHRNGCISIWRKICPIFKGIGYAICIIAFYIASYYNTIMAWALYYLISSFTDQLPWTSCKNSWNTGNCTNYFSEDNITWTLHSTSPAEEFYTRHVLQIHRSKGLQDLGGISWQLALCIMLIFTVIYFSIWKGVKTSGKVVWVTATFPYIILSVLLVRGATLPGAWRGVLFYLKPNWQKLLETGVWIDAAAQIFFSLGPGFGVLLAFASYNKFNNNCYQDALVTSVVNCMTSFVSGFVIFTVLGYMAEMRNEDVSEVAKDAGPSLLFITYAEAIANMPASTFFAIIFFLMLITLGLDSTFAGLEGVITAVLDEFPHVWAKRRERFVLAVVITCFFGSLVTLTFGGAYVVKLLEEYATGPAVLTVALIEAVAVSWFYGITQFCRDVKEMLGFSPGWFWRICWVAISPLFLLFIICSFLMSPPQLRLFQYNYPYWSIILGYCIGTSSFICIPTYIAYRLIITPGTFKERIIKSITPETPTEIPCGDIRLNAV
Sequence of serotoninergic 5-HT6 receptor (P50406 whole entry): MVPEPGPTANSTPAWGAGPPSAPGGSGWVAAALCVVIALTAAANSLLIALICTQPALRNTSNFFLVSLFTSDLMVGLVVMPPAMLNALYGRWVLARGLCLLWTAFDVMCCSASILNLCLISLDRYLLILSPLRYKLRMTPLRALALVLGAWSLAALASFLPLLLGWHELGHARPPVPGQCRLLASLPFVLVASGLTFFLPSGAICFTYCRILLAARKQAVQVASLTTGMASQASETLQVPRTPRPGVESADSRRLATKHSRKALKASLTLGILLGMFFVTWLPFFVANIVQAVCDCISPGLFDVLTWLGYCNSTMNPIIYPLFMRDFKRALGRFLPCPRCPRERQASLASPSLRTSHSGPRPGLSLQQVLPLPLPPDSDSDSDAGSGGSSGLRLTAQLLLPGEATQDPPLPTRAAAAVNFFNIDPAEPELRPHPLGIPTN
Sequence of dopaminergic D3 receptor (P35462 whole entry): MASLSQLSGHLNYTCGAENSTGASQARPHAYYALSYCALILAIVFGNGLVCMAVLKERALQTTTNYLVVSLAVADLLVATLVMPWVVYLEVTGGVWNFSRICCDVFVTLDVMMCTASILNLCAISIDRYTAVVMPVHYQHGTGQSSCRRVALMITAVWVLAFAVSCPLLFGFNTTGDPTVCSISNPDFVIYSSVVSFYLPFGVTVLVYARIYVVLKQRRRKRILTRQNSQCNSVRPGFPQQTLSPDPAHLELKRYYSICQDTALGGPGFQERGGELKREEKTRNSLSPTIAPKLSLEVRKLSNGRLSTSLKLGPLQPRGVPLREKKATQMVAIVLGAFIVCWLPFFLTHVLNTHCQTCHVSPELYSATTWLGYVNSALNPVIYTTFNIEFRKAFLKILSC
Sequence of dopaminergic D2 receptor (P14416 1-414 isoform P14416-2): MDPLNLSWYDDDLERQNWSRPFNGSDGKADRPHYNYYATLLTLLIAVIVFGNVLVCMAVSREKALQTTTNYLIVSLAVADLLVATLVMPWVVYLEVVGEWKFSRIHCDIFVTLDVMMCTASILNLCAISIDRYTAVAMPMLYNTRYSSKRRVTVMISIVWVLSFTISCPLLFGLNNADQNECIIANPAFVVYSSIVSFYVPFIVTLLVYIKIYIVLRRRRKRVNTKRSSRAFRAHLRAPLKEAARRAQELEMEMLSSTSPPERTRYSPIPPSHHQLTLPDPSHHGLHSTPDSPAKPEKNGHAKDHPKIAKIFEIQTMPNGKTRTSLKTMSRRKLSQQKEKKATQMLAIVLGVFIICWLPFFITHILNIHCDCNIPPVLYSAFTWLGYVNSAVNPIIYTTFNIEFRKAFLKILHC

Regarding `Cc1cc(S(=O)(=O)NCCCN2CCC(c3noc4cc(F)ccc34)CC2)c(C)s1` [Compound 342, N-[3-[4-(6-Fluoro-1,2-benzoxazol-3-yl)piperidin-1-yl]propyl]-2,5-dimethyl-thiophene-3-sulphonamide], the inhibition at 1 µM in experiment [1] was determined as 26%; on dopaminergic D3 receptor it was 99%; in experiment [2], 100%; in experiment [3], 96%; on dopaminergic D2 receptor it was 106%; in experiment [4], 74%. In addition, the inhibition at 1 µM in experiment [5] worked out at 106%. For the same compound, the “α1 [%]” value in the experiment on adrenergic α1 receptor was 103%.
Regarding `O=S(=O)(NCCCN1CC=C(c2c[nH]c3ccc(F)cc23)CC1)c1cccc(O)c1` [Compound 437, N-[3-[4-(5-Fluoro-1H-indol-3-yl)-3,6-dihydro-2H-pyridin-1-yl]propyl]-3-hydroxybenzenesulphonamide], the inhibition at 1 µM in experiment [1] worked out at 105%; on dopaminergic D3 receptor, 100%; in experiment [2] it was 47%; in experiment [3] it was 83%; on dopaminergic D2 receptor, 57%; in experiment [4] it was 24%. For the same compound, the inhibition at 1 µM in experiment [5] is 74%. The “α1 [%]” value in the experiment with adrenergic α1 receptor is given as 52%.
As for `Cc1[nH]c2ccc(Cl)cc2c1C1=CCN(CCCCNS(=O)(=O)c2cccc(F)c2)CC1` [Compound 139, N-[4-[4-(5-Chloro-2-methyl-1H-indol-3-yl)-3,6-dihydro-2H-pyridin-1-yl]butyl]-3-fluorobenzenesulphonamide], the inhibition at 1 µM in experiment [1] came out at 17%; on dopaminergic D3 receptor it was 92%; in experiment [2], 96%; in experiment [3], 56%; on dopaminergic D2 receptor, 52%; in experiment [4] it was 57%. Besides, in experiment [5], the inhibition at 1 µM amounted to 41%. Besides, the “α1 [%]” value in the experiment with adrenergic α1 receptor is reported as 20%.
With `Cn1ccc2ccc(S(=O)(=O)NCCCCN3CCC(c4noc5cc(F)ccc45)CC3)cc21` [Compound 311, N-[4-[4-(6-Fluoro-1,2-benzoxazol-3-yl)piperidin-1-yl]butyl]-1-methyl-indole-6-sulphonamide], the inhibition at 1 µM was 34% in experiment [1]; 101% at dopaminergic D3 receptor; 99% in experiment [2]; 95% in experiment [3]; 105% on dopaminergic D2 receptor; 49% in experiment [4]. Also, the inhibition at 1 µM in experiment [5] turned out to be 105%. The “α1 [%]” value with adrenergic α1 receptor was 107%.
For the compound `O=S(=O)(NCCCCN1CCN(c2cccc3c2OCCO3)CC1)c1ccc(F)c(F)c1` [Compound 389, N-[4-[4-(2,3-Dihydro-1,4-benzodioxin-5-yl)piperazin-1-yl]butyl]-3,4-difluorobenzenesulphonamide], the inhibition at 1 µM in experiment [1] amounted to 44%; on dopaminergic D3 receptor it was 85%; in experiment [2] it was 19%; in experiment [3], 93%; at dopaminergic D2 receptor, 50%; in experiment [4], 118%. In experiment [5], the inhibition at 1 µM was 56%. Also, in the experiment on adrenergic α1 receptor, the “α1 [%]” value was found to be 93%.
With `O=C1COc2c(cccc2N2CCN(CCCCNS(=O)(=O)c3cccc(F)c3)CC2)N1` [Compound 211, 3-Fluoro-N-[4-[4-(3-oxo-4H-1,4-benzoxazin-8-yl)piperazin-1-yl]butyl]benzenesulphonamide], the inhibition at 1 µM was determined as 33% in experiment [1]; 102% at dopaminergic D3 receptor; 32% in experiment [2]; 81% in experiment [3]; 81% at dopaminergic D2 receptor; 86% in experiment [4]. Besides, the inhibition at 1 µM in experiment [5] came out at 32%. Besides, the “α1 [%]” value in the experiment on adrenergic α1 receptor is on record as 80%.
With `O=S(=O)(NCCCN1CCN(c2cccc3c2OCCO3)CC1)c1ccc(-c2ccccc2)cc1` [Compound 415, N-[3-[4-(2,3-Dihydro-1,4-benzodioxin-5-yl)piperazin-1-yl]propyl]-4-phenylbenzenesulphonamide], the inhibition at 1 µM was -5% in experiment [1]; 76% on dopaminergic D3 receptor; 15% in experiment [2]; 92% in experiment [3]; 58% at dopaminergic D2 receptor; 96% in experiment [4]. For the same compound, in experiment [5], the inhibition at 1 µM is 25%. For the same compound, the “α1 [%]” value in the experiment with adrenergic α1 receptor was determined as 78%.
Turning to `O=S(=O)(NCCCCN1CCN(c2cccc3c2OCCO3)CC1)c1cccc(Br)c1` [Compound 391, 3-Bromo-N-[4-[4-(2,3-dihydro-1,4-benzodioxin-5-yl)piperazin-1-yl]butyl]benzenesulphonamide], the inhibition at 1 µM in experiment [1] was -28%; at dopaminergic D3 receptor it was 85%; in experiment [2], 19%; in experiment [3], 92%; on dopaminergic D2 receptor it was 76%; in experiment [4], 97%. Moreover, in experiment [5], the inhibition at 1 µM was found to be 68%. In the experiment on adrenergic α1 receptor, the “α1 [%]” value stood at 90%.
Consider `Cc1cc(S(=O)(=O)NCCCCN2CCC(c3noc4cc(F)ccc34)CC2)c(C)s1` [Compound 309, N-[4-[4-(6-Fluoro-1,2-benzoxazol-3-yl)piperidin-1-yl]butyl]-2,5-dimethyl-thiophene-3-sulphonamide], for which the inhibition at 1 µM in experiment [1] is -5%; on dopaminergic D3 receptor, 90%; in experiment [2], 79%; in experiment [3], 87%; at dopaminergic D2 receptor, 84%; in experiment [4], 64%. The inhibition at 1 µM in experiment [5] came out at 88%. The “α1 [%]” value in the experiment with adrenergic α1 receptor turned out to be 103%.
As to `Cc1[nH]c2ccc(Cl)cc2c1C1=CCN(CCCNS(=O)(=O)c2ccc(F)cc2)CC1` [Compound 443, N-[3-[4-(5-Chloro-2-methyl-1H-indol-3-yl)-3,6-dihydro-2H-pyridin-1-yl]propyl]-4-fluorobenzenesulphonamide], the inhibition at 1 µM is -9% in experiment [1]; 71% at dopaminergic D3 receptor; 92% in experiment [2]; 54% in experiment [3]; 22% on dopaminergic D2 receptor; 59% in experiment [4]. Further, in experiment [5], the inhibition at 1 µM came to 67%. Besides, the “α1 [%]” value in the experiment with adrenergic α1 receptor turned out to be 41%.
Consider `O=S(=O)(NCCCN1CCN(c2cccc3c2OCCO3)CC1)c1ccc2ccccc2c1` [Compound 406, N-[3-[4-(2,3-Dihydro-1,4-benzodioxin-5-yl)piperazin-1-yl]propyl]naphthalene-2-sulphonamide], for which the inhibition at 1 µM in experiment [1] was found to be 10%; on dopaminergic D3 receptor, 54%; in experiment [2], 54%; in experiment [3] it was 92%; at dopaminergic D2 receptor, 59%; in experiment [4] it was 99%. The inhibition at 1 µM in experiment [5] turned out to be 28%. Moreover, the “α1 [%]” value in the experiment on adrenergic α1 receptor is listed as 77%.
Regarding `CC(C)(C)c1ccc(S(=O)(=O)NCCCN2CCC(c3noc4cc(F)ccc34)CC2)cc1` [Compound 333, 4-tert-Butyl-N-[3-[4-(6-fluoro-1,2-benzoxazol-3-yl)piperidin-1-yl]propyl]benzenesulphonamide], the inhibition at 1 µM in experiment [1] worked out at 5%; at dopaminergic D3 receptor, 89%; in experiment [2], 93%; in experiment [3], 92%; at dopaminergic D2 receptor, 92%; in experiment [4] it was 42%. The inhibition at 1 µM in experiment [5] is 99%. Also, the “α1 [%]” value with adrenergic α1 receptor amounted to 106%.
